{"source": "patent US20210353595A1", "about": "“USE OF MELATONIN IN PREPARATION OF MEDICAMENT FOR INHIBITING AND/OR KILLING BACTERIUM” (priority 2020, published 2021)", "key": {"[1]": {"system": "P. multocida cells", "assay": "SEM and TEM morphology of bacterial cells", "assay_type": "cell-based, Pasteurella multocida", "details": "MT 1, 2 or 3 mg/mL, 8, 12 or 16 hours", "experimental": "The effect of melatonin on the morphologies of P. multocida cells were evaluated employing SEM and TEM. 1 mL of fresh Pasteurella multocida (1×10^9 CFU) at the logarithmic growth stage was added into 100 mL of fresh Martin liquid medium containing different concentrations (1, 2 or 3 mg/mL) of MT. MT-free DMSO was used as a solvent control group and ampicillin (100 μg/mL) was used as a positive control group. All cultures were shaken at 220 rpm in a shaker at 37° C. for 8 hours, 12 hours or 16 hours. The bacterial samples were centrifuged at 3000 r/min for 10 minutes, the supernatant was removed, and cells were collected and washed with PBS for 3 times. Then the cells were fixed with a fixation solution of 2.5% fresh glutaraldehyde for 6 hours, and washed with PBS for 3 times, each time for 10 minutes. Subsequently, the SEM samples were dehydrated with 50%, 70%, 80% and 90% ethanol for 15 minutes respectively, and then dehydrated with 100% ethanol for 3 times, each time for 30 minutes. Ethanol was removed by washing with tert-butyl alcohol for three times, each time for 30 minutes. The samples were dried by a freeze dryer and plated with 10 nm of gold film by an ion sputtering device. The samples were examined using a field scanning electron microscope (FESEM, Hitch SU8010).\nThe TEM samples were fixed with 1%-2% […] for 2-3 hours, and washed with […] 3 times, each time for 10 minutes. The samples were dehydrated with 30%, 50%, 70%, 80% and 90% ethanol for 20 minutes respectively, and then dehydrated with 100% ethanol 3 times, each time for 30 minutes. Ethanol was replaced with acetone three times, each time for 30 minutes. The bacterial samples were placed on a copper grid with a formvar membrane, and negatively stained with phosphotungstic acid (2% v/v, pH=6.7). The surface area of the sample was less than 0.2 mm×0.2 mm, and slice thickness was between 50 and 90 nm (Lycra UC7). The samples were detected by TEM (Hitachi H-7650) at 80 kV, and photographs of the samples were taken by a Gatan832 CCD camera (Gatan). […]"}, "[2]": {"system": "Pasteurella multocida", "assay": "Bacteriostatic activity, bacterial growth curve (OD600)", "assay_type": "cell-based", "details": "MT 1, 1.5 and 2 mg/mL (lower than MBC); OD600 every 2 hours; FIG. 1", "experimental": "In order to further verify the bacteriostatic activity of melatonin against Pasteurella multocida, the bacterial growth curve was determined in view of an increase of melatonin concentration. […] Then the bacteria were cultured in a shaker at a constant temperature of 37° C. at 220 rpm, and the bacterial culture was determined for OD600 every 2 hours with an ultraviolet spectrophotometer to detect the effect of melatonin on the bacterial growth curve. Each experiment was carried out for three times, and each group was set in triplicate."}, "[3]": {"system": "Pasteurella multocida", "assay": "Prevention of Pasteurella multocida infection by melatonin in mice", "assay_type": "in vivo, C57BL/6 mice", "experimental": "(§1) C57 mice purchased from the Third Military Medical University were randomly divided into four groups (10 mice in each group): a group of Pasteurella multocida+solvent control, a group of Pasteurella multocida+MT (30 mg/kg), a group of Pasteurella multocida+MT (60 mg/kg), and a group of Pasteurella multocida+MT (120 mg/kg). Before Pasteurella multocida infection, MT was injected intraperitoneally to the experimental group (injection once in the morning) for consecutive 7 days (P) or 6 days (P-1), while the control mice received the equal amount of DMSO. Thereafter, mice were infected by intraperitoneal injection of suspension of Pasteurella multocida ([…]). The survival rate of mice within 7 days was monitored and recorded. Blood samples were collected from mice, and the serum was stored at −20° C. for later ELISA test. Lung samples were collected and homogenized aseptically, and then the bacterial load was quantified by serial dilution, plate inoculation and CFU counting.\nIn order to measure the colonization of mouse lung bacteria before and after melatonin treatment, the lung tissues of mice were collected 24 hours and 32 hours after infection. The tissues were homogenized under aseptic conditions, and the bacterial content was determined by continuous dilution of 10 times in saline. These different dilutions were coated on the Martin broth agar in triplicate and incubated in a constant-temperature incubator at 37° C. for 24 hours to count the bacterial CFU."}, "[4]": {"system": "Pasteurella multocida", "assay": "LIVE/DEAD BacLight integrity of bacterial cell membrane", "assay_type": "cell-based", "details": "melatonin greater than the MIC concentration; 8, 12, 16 hours; time- and dose-dependent; FIG. 9", "experimental": "The integrity of bacterial cell membrane was evaluated with a LIVE/DEAD BacLight bacterial detection kit. 1 mL of bacterial culture was centrifuged at 3000 rpm for 10 minutes, the supernatant was removed, and the cells were washed with 10 mL of 0.85% NaCl for 3 times. The precipitated cells were resuspended and mixed with 1 mL of 0.85% NaCl. Then a mixture of SYTO9 fluorescent nucleic acid dye and propidium iodide mixed at the equal volume (3 μL each) was added into the resuspended solution. The mixture was thoroughly mixed and incubated in the dark at room temperature for 15 minutes. 5 μL of suspension of stained bacteria was added between a slide glass and a 18 mm square cover glass. (The combination of two nucleic acid dyes in this kit can distinguish living bacteria with intact membranes from dead bacteria with damaged membranes.) The living bacteria were dyed green with SYTO9, while the dead bacteria presented as red because of the interaction between propidium iodide and the double-stranded DNA of the bacteria. The fluorescence micrographs of stained bacteria were taken by OLYMPUS IX51 inverted microscope. Each experiment was carried out in triplicate for three times."}, "[5]": {"system": "Pasteurella multocida", "assay": "Prevention and treatment of Pasteurella multocida infection in mice", "assay_type": "in vivo, C57BL/6 mice", "experimental": "as §1\nMice were randomly divided into four groups (10 mice in each group) as described in #1, described above. In the experimental group, after infection with 2.2×10^5 CFU of Pasteurella multocida through intraperitoneal injection, MT was injected intraperitoneally for four times, with the first injection 30 minutes after Pasteurella multocida infection, then the injection was performed once every 6 hours, for three times in total. Control mice were given an equal amount of DMSO at the same four time points. Subsequently, the survival rate of mice within 7 days was recorded. At the same time, mice were euthanized at 12 h, 16 h, 24 h and 32 h after infection to collect tissue and serum samples for later ELISA and bacterial count analysis.\nIn order to measure the colonization of mouse lung bacteria before and after melatonin treatment, the lung tissues of mice were collected 24 hours and 32 hours after infection. The tissues were homogenized under aseptic conditions, and the bacterial content was determined by continuous dilution of 10 times in saline. […]"}, "[6]": {"details": "preventive dose 60 mg/kg or above, intraperitoneal, consecutive 7 days before infection"}}, "note": "“Also recorded” adds a separate entry of the source.", "data": [{"smiles": "COc1ccc2[nH]cc(CCNC(C)=O)c2c1", "note": "[melatonin, N-acetyl-5-methoxytryptamine]", "values": [{"measurement": "cell morphology in SEM analysis", "setting": "[1]; FIG. 10", "result": "many holes passing through the OM, peptidoglycan (PG) layers and CM"}, {"measurement": "cell morphology in TEM image", "setting": "[1]; FIG. 11", "result": "obvious cytoplasmic vacuolization"}, {"measurement": "bacterial growth (growth curve, OD600)", "setting": "[2]", "result": "significantly inhibits bacterial growth"}, {"measurement": "preventive effect on the bacterial infection", "setting": "[3]; melatonin removed 24 hours before infection (P-1, 6 days), FIGS. 33 and 34", "result": "significant preventive effect"}, {"measurement": "bacterial count in the lung", "setting": "[3]; [6]", "result": "significantly reduced"}, {"measurement": "survival rate of mice", "setting": "[3]; [6]", "result": "significantly improved"}, {"measurement": "damage to bacterial cell membrane (SYTO9 / propidium iodide fluorescence)", "setting": "[4]", "result": "the red fluorescence increased and the green fluorescence decreased; also recorded: damages the cell membrane"}, {"measurement": "bacterial colonization in the lung tissues of mice", "setting": "[5]; 24 hours and 32 hours after infection, prevention and treatment groups vs DMSO group", "result": "significantly reduced"}, {"measurement": "decrease of bacterial colonization amount (CFU/g)", "setting": "[5]; dose of 120 mg/kg, lung tissues", "result": "about 2 log 10"}, {"measurement": "survival rates of mice", "setting": "[5]; prevention and treatment groups vs DMSO group, intraperitoneal, FIGS. 29-34", "result": "significantly improved"}]}]}
